{
  "source": "patent US11701360B2",
  "about": "“Composition for inducing differentiation and protection of neural stem cells and method for inducing neuro-regeneration using the same composition” (GENUV Inc., priority 2017, dated 2023)",
  "key": {"[1]": {"test_system": "mouse adult neural stem cells", "details": "for cell protection and differentiation of NSC under amyloid-beta cytotoxicity: 10 μM amyloid-beta, second day of culture; for concentration at which differentiation-inducing effect starts: no amyloid-beta, day 2 of culture", "procedure": "NSC were isolated from the subventricular zone of week 8 mouse brain, treated with 20 ng/ml human basic fibroblast growth factor (bFGF) and 20 ng/ml human epidermal growth factor (EGF) in an IPM medium, and cultured as a suspension in 24-well plates for 7 days.\nTwo days before the isolation of single cells, 6-well plates were prepared by treating the wells with 10 μg/ml poly-L-ornithine solution and incubating overnight at room temperature for coating. The next day, poly-L-ornithine solution was removed and the plates were washed 3 times with sterilized triple distilled water. […] The culture solution used is N2 culture medium (supplemented with 20 ng/ml bFGF and 20 ng/ml EGF). Right before seeding, the coating solution was suctioned out, and the single cells were uniformly seeded into the culture plate before the plate dried up. Cells were allowed to attach to the plates for about one minute, and after checking that cells were sufficiently attached, an additional 1.5 ml of culture medium (N2 culture medium with 20 ng/ml bFGF and 20 ng/ml EGF) was added to the cells and cultured in a 37° C. incubator for 24 hours.\nWells not treated with amyloid-beta were left to use as negative controls.\nGibco's (Waltham, Mass.) human Aβ (1-42) was purchased to use for the amyloid-beta (Aβ), and the following process was followed to create oligomers. […] Then, it was dried for 10 minutes in a speed Vac, after which DMSO (Sigma, cat #.D2650) was added to bring the concentration to 5 mM and then lightly vortexed at room temperature for 10 minutes. […] The solution was incubated at 4° C. for 24 hours and then added into the cultured cells.\nThe NCSs were cultured with the daily addition of EGF, bFGF, amyloid-beta, and test materials for 4 days."}, "[2]": {"test_system": "mouse embryonic neural stem cells", "assay": "Immunocytochemistry analysis (Tuj1/DAPI staining)", "format": "cell-based", "details": "4 days", "procedure": "Tuj1 (Neuron specific class III beta-tubulin) is a neuron specific marker protein, which was conjugated to rhodamine to show fluorescent red, while DAPI binds to the cell DNA and stains the cell nuclei fluorescent blue. […] The medium was removed and the cells were washed with PBS. After fixing with 10% formaldehyde (Sigma cat #. HT501128) at room temperature for 10 minutes, they were washed again with PBS. They were permeabilized with 0.2% Triton X-100 (Sigma, cat #. 93443) at room temperature for 15 minutes, washed with PBS, and incubated with 10% BSA (Sigma, cat #. A2153)+1% normal goat serum (Vector lab, Burlingame, Calif., cat #. S1000) at room temperature for 1 hour. […] The solution was removed, washed with PBS, and incubated at room temperature for 1 hour with the secondary antibody (rhodamine-conjugated antibody) diluted in 1% BSA+1% normal goat serum at a ratio of 1:200. Then, the cells were washed with PBS, incubated with 5 μg/ml DAPI (Sigma, cat #. D9542) for 5 minutes, washed with PBS again, and mounted on a slide glass for analysis with a fluorescent microscope."}, "[3]": {"details": "cited from earlier work"}, "[4]": {"test_system": "mouse embryonic neural stem cells", "assay": "Morphology analysis (phase-contrast) of NSC differentiation in mouse embryonic neural stem cells", "format": "cell-based", "details": "1.0 μM and 10 μM; day 2 of culture", "procedure": "Neural stem cells were isolated from the brain of a day 14.5 mouse embryo, treated with 10 ng/ml human basic fibroblast growth factor (bFGF) (Peprotech, Princeton, NG, cat #0.100-18B) and 20 ng/ml human epidermal growth factor (EGF) (Peprotech, cat #. AF-100-15) in a N2 culture medium, and cultured in suspension in a 25 cm2 flask (Nunc, Pittsburgh, Pa.) for 4 days. Formation of neurospheres was observed after 2 days.\nIn order to isolate single cells, 6-well plates were prepared the day before by treating the wells with 15 μg/ml poly-L-ornithine (Sigma, St. Louis, Mo., cat #.P2533) solution and incubating overnight at 37° C. for coating. The day of the single cell isolation, poly-L-ornithine solution was removed, the plates were washed with PBS three times, and 10 μg/ml fibronectin (Gibco, Waltham, Mass., cat #. 33016015) solution was added and incubated at 37° C. for 2 hours for coating.\nVarious concentrations of the compound of [Formula 1]\nFIG. 10b is the analysis of Tuj1 mRNA expression in the cells of each group."}, "MEK1": {"molecular_target": "MEK1 (Homo sapiens (Human), UniProt Q02750)", "sequence (Q02750 whole entry, species assumed)": "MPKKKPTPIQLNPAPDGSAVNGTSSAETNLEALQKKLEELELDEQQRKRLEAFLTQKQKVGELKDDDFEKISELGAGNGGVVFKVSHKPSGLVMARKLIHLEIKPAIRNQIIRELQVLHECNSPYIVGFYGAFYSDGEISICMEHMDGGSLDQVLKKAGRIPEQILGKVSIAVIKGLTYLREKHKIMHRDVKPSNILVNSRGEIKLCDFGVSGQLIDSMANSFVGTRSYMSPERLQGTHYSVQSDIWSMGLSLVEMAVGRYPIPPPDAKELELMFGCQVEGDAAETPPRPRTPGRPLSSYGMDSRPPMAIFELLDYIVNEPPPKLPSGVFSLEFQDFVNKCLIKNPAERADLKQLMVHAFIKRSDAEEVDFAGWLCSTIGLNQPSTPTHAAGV", "details": "cited from earlier work"}},
  "note": "Entries after “also recorded” stand apart in the source; their conditions may differ. Like-named read-outs stand apart in the source and are kept apart here.",
  "data": [
    {"compound": "O=C(NC[C@H](O)CO)c1ccncc1Nc1ccc(I)cc1F", "note": "[AS703026, pimasertib]", "values": [
      {"measurement": "cell protection and differentiation of NSC under amyloid-beta cytotoxicity", "setting": "[1]; compound 10 μM", "result": "provided cell protection and induced the differentiation of NSC"},
      {"measurement": "cell toxicity", "setting": "[1]; trametinib 10 nM and 100 nM, AS703026 10 μM, 4 days", "result": "did not elicit cell toxicity"},
      {"measurement": "neuron differentiation (Tuj1 staining)", "setting": "[2]; 0.1 μM", "result": "no differentiation was observed"},
      {"measurement": "neuron differentiation (Tuj1 staining)", "setting": "[2]; 1.0 μM", "result": "neuron differentiation occurs at this concentration, albeit only to a marginal extent"},
      {"measurement": "expression of phosphorylated ERK in the mouse brain", "setting": "[3]", "result": "decrease the expression of phosphorylated ERK"},
      {"measurement": "crossing of the blood brain barrier", "setting": "[3]; mouse", "result": "effectively cross the BBB"}
    ]},
    {"compound": "Cc1cc(C(=O)NOCCO)c(Nc2ccc(I)cc2F)n(C)c1=O", "note": "[AZD8330]", "values": [
      {"measurement": "cell protection and differentiation of NSC under amyloid-beta cytotoxicity", "setting": "[1]; compound 1 μM", "result": "provided cell protection and induced the differentiation of NSC"}
    ]},
    {"compound": "O=C(NOCC1CC1)c1ccc(F)c(F)c1Nc1ccc(I)cc1Cl", "note": "[PD184352]", "values": [
      {"measurement": "cell death", "setting": "[4]", "result": "all the cells died"}
    ]},
    {"compound": "O=C(NOCC(O)CO)c1cc(Br)c(F)c(F)c1Nc1ccc(I)cc1F", "note": "(stereo not drawn) [PD318088]", "values": [
      {"measurement": "cell protection and differentiation of NSC under amyloid-beta cytotoxicity", "setting": "[1]; compound 1 μM", "result": "provided cell protection and induced the differentiation of NSC"}
    ]},
    {"compound": "O=C(NOC[C@H](O)CO)c1ccc(F)c(F)c1Nc1ccc(I)cc1F", "note": "[PD0325901]", "values": [
      {"measurement": "differentiation-inducing effect (morphology)", "setting": "[1]; 0.1 μM to 10 μM, day 2", "result": "excellent inducing effect"},
      {"measurement": "concentration at which differentiation-inducing effect starts", "setting": "[1]", "result": 0.1, "unit": "µM"}
    ]},
    {"compound": "CNS(=O)(=O)Nc1nccc(Cc2c(C)c3ccc(Oc4ncccn4)cc3oc2=O)c1F", "note": "[RO5126766]", "values": [
      {"measurement": "concentration at which differentiation-inducing effect starts", "setting": "[1]", "result": 1.0, "unit": "µM"}
    ]},
    {"compound": "N#CC(=C(/N)Sc1ccccc1N)/C(C#N)=C(\\N)Sc1ccccc1N", "note": "[U0126]", "values": [
      {"measurement": "cell proliferation", "setting": "[1]; 0.1 μM and 1.0 μM, day 2", "result": "inhibition of cell proliferation"},
      {"measurement": "differentiation-inducing effect (morphology)", "setting": "[1]; 2.5 μM, day 2", "result": "did not show any clear differentiation-inducing effect"},
      {"measurement": "cell cytotoxicity", "setting": "[1]; 10 μM, day 2", "result": "cell cytotoxicity"},
      {"measurement": "NSC differentiation-inducing effect (morphology)", "setting": "[1]; all concentrations tested, day 2", "result": "failed to show any NSC differentiation-inducing effect"}
    ]},
    {"compound": "O=C(c1ccc(F)c(F)c1Nc1ccc(I)cc1F)N1CC(O)([C@@H]2CCCCN2)C1", "note": "[cobimetinib]", "values": [
      {"measurement": "differentiation of adult NSC (morphology)", "setting": "[1]; 10 μM, regardless of whether amyloid-beta was added, second day", "result": "did not induce the differentiation of adult NSC; also recorded: does not induce the differentiation of mouse adult neural stem cells"},
      {"measurement": "selectivity toward MEK1 compared with MEK2", "setting": "MEK1", "result": "≥ 100", "unit": "×"}
    ]},
    {"compound": "CC12CC3CC(C)(C1)CC(N)(C3)C2", "note": "[memantine]", "values": [
      {"measurement": "cell death of neural stem cells", "setting": "[1]; 5 μM and 10 μM, 4 days", "result": "death of neural stem cells"},
      {"measurement": "differentiation of NSC into neurons (morphology)", "setting": "[1]; 5 μM and 10 μM, 4 days", "result": "not observed"}
    ]},
    {"compound": "COc1cc(F)c(F)c(Nc2ccc(I)cc2F)c1NS(=O)(=O)C1(C[C@H](O)CO)CC1", "note": "[refametinib]", "values": [
      {"measurement": "cell protection and differentiation of NSC under amyloid-beta cytotoxicity", "setting": "[1]; compound 1 μM", "result": "provided cell protection and induced the differentiation of NSC"}
    ]},
    {"compound": "BI847325", "values": [
      {"measurement": "cell proliferation", "setting": "[1]; 1.0 nM and 10 nM, day 2", "result": "somewhat inhibited"},
      {"measurement": "differentiation-inducing effect (morphology)", "setting": "[1]; 1.0 nM and 10 nM, day 2", "result": "not observed"},
      {"measurement": "differentiation-inducing effect (morphology)", "setting": "[1]; 0.1 μM, day 2", "result": "only a weak differentiation-inducing effect"}
    ]}
  ]
}
